Experimental data taken from patent EP0314302A2, “Herbicidal o-carbomethoxy-sulfonylureas” (E.I. DU PONT DE NEMOURS AND COMPANY, priority 1987, dated 1989).

Experiments:
Settings in all cases: scale 0-100
[1] = tested on: Groundsel; test: Test 7 postemergence; type: in vivo, Senecio spp
Procedure: (§1) Individual 11.4-cm plastic pots filled with planting medium were seeded with rape, wild radish (Raphanus raphanistruna). tansy mustard (Descurainia pinnata), ball mustard (Neslia paniculata), black mustard (Brassica nigra), yellow mustard, brown mustard, lentils, safflower, flax, sunflower, peanut, vetch, alfalfa, field bean, pea, violet (Viola spp), Kochia (Kochia spp), Russian thistle (Salsola spp), Matricaria spp, groundsel (Senecio spp), shepherdspurse (Capsella bursa-pastoris), nightshade (Solanum spp), sowthistle (Sonchus spp), sugar beet, wheat, "Bonanza" barley and "Morex" barley, Kentucky bluegrass (Poa pratensis), red clover (Trifolium pratense), dandelion (Taraxacum spp) and buckhorn plantain (Plantago lanceolata).
(§2) Plants were treated postemergence with the compound formulated with a non-phytotoxic carrier. Plants were visually rated 18 days after treatment (DAT). Response ratings were based on the scale of 0 to 100 where 0 = no effect, 20 = minimal injury and 100 = complete control.

[2] = tested on: Nightshade; test: Test 7 postemergence; type: in vivo, Solanum spp
Procedure: as §1, §2

[3] = tested on: Elephantgrass; test: Test 9 postemergence; type: in vivo, Pennisetum purpureum
Procedure: Plastic windowsill pots containing planting medium were seeded with bahiagrass, bindweed (Convolvulus spp), guinea grass (Panicum maximum), large crabgrass (Digitaria sanguinalis) and pigweed (Amaranthus spp). Individual 15-cm plastic pots contained sandbur (Cenchrus echinatus), Mikania cordata, Boston fern (Nephrolepis exalata), quackgrass (Agropyron repens), elephantgrass (Pennisetum purpureum) and sowthistle (Sonchus spp) plants.
Plants were treated postemergence with Compound I formulated in a non-phytotoxic solvent. Plants were visually rated 22 days after treatment (DAT). Injury and weed control ratings were based on the scale of 0 to 100 where 0 = no effect, 20 = minimal control and 100 = complete control.

## COC(=O)c1cccnc1S(=O)(=O)NC(=O)Nc1nc(OC)cc(OC)n1 [Compound I, 2-[[(4,6-dimethoxypyrimidin-2-yl)aminocarbonyl]aminosulfonyl]-3-pyridinecarboxylic acid, methyl ester]
[1]; 16 g/ha
  Plant Injury Rating 18 DAT: 100
[1]; 32 g/ha
  Plant Injury Rating 18 DAT: 100
[2]; 16 g/ha
  Plant Injury Rating 18 DAT: 50
[2]; 32 g/ha
  Plant Injury Rating 18 DAT: 60
[3]; 8 g/ha
  Plant Injury Rating 22 DAT: 0
[3]; 16 g/ha
  Plant Injury Rating 22 DAT: 50
[3]; 32 g/ha
  Plant Injury Rating 22 DAT: 70
